In patent publication US10538742B2, “Methods and means related to cancer stem cells” (Cambridge Enterprise Limited, priority 2004, dated 2020):

Tests used:
MCF-7 cells = test: Treatment of MCF-7 cells with gamma secretase inhibitor, SP quantitated; format: cell-based, human; details: 10 uM reserpine during SP analysis
Description: FIG. 10A-10D illustrates the results of a screen for anti-cancer stem cell activity using the MCF-7 cancer cell line. MCF-7 cells were incubated with 1 uM gamma secretase inhibitor (Calbiochem, San Diego, catalog number 565750) for 7 days (B, D). Control cells were cultured without a gamma secretase inhibitor (A, C). Following drug treatment, cells were washed, and then the SP was analyzed as described herein, in the presence (C, D) or absence (A, B) of 10 uM reserpine. The percentage of SP cells in the culture is given for each experimental condition.
MCF-7 cells were cultured in serum-containing media, as described above. Cells were harvested from the cultures, washed, and resuspended in gamma secretase inhibitor I. Gamma secretase inhibitor I was purchased from Calbiochem™ (San Diego, Calif.; Catalog number 565750). The gamma secretase inhibitor was added to the cultures at a final concentration of 1 uM. Cells were treated for 7 days, and the SP was quantitated as described.
The invention includes methods for evaluating compounds for anti-cancer stem cell activity by monitoring the SP cell population of a cancer cell line. In this experiment, MCF-7 cells were treated with a gamma secretase inhibitor, as described above. […] Therefore, gamma secretase inhibitors could affect cancer stem cells expressing the Notch protein. […]

MCF7 cells = test: MCF7 SP cell expansion in serum-free medium with growth factors; format: cell-based, human; details: growth factor 10 ng/ml, 7 days, in FCS less than 0.8%
Description: The cells were cultured in FCS (A) or serum-free medium with bFGF (B), EGF (C), or both (D) for 7 days and were analyzed by flow cytometry. The SP is outlined and shown as a % of the total cell population.
(§1) The cells were cultured in DMEM, supplemented with 10% FCS, 100 units/ml penicillin G, and 100 μg/ml streptomycin (GIBCO). In some experiments, C6 cells were cultured in serum-free DMEM containing 10 μg/ml bovine insulin, 100 μg/ml human transferrin, 100 μg/ml BSA, 60 ng/ml progesterone, 16 μg/ml putrescine, 40 ng/ml sodium selenite, 63 μg/ml N-acetylcysteine, 5 μM forskolin, 50 units/ml penicillin, and 50 μg/ml streptomycin (GIBCO), as well as one or both of 10 ng/ml bFGF and 10 ng/ml PDGF, or one or both of bFGF (10 ng/ml) and EGF (10 ng/ml).
MCF7 Cell Expansion MCF7 cells were cultured in 10% FCS (FIG. 7A) or in serum-free culture medium with bFGF (FIG. 7B), EGF (FIG. 7C), or both (FIG. 7D) for 7 days. […] Cells were stained with Hoechst dye and analyzed by flow cytometry. When cultured in FCS, less than 0.8% of the cells are SP cells. By contrast, when cultured in serum-free medium with bFGF, EGF or both, 5.1%, 3.5%, or 6.2% of the cells, respectively, are SP cells.

C6 cells = test: C6 SP cell expansion in serum-free medium with bFGF and PDGF; format: cell-based, rat; details: 10 ng/ml growth factor, up to 3 weeks
Description: as §1
To identify and isolate the SP cells in the cancer cell lines, the lines were cultured as described above, in either FCS or serum-free culture medium with bFGF, PDGF, or both. […] Then, 3-5×10^4 cells were analyzed in a FACSVantage fluorescence-activated cell sorter (Becton Dickinson) by using dual-wavelength analysis (blue, 424-444 nm; red, 675 nm) after excitation with 350-nm UV light. […]
The cells were stained with Hoechst 33342 and analyzed by flow cytometry. […]
To investigate the individual roles of PDGF and bFGF in expanding C6 SP cells, C6 cells were cultured in either bFGF or PDGF for 2 weeks and then in bFGF plus PDGF for an additional 2 weeks. The cells were then stained with Hoechst 33342 and analyzed by flow cytometry. […]

C6 glioma cells = test: SP analysis by Hoechst 33342 flow cytometry, C6 glioma cells; format: cell-based, rat; details: 50 μM verapamil during Hoechst 33342 labeling
Description: (§2) To identify and isolate the SP cells in the cancer cell lines, the lines were cultured as described above, in either FCS or serum-free culture medium with bFGF, PDGF, or both. The cells were removed from the culture dish with trypsin and EDTA GIBCO BRL), washed, suspended at 10^6 cells per ml in DMEM containing 2% FCS (staining medium), and preincubated in 1.5-ml Eppendorf tube at 37° C. for 10 min. The cells were then labeled in the same medium at 37° C. for 90 min with 2.5 μg/ml Hoechst 33342 dye (Molecular Probes), either alone or in combination with 50 μM verapamil (Sigma), which is an inhibitor of some (verapamil-sensitive) ABC transporters (Goodell, M. A. (1996) J. Exp. Med. 183 1797-1806.). Finally, the cells were counterstained with 1 μg/ml propidium iodide to label dead cells. Then, 3-5×10^4 cells were analyzed in a FACSVantage fluorescence-activated cell sorter (Becton Dickinson) by using dual-wavelength analysis (blue, 424-444 nm; red, 675 nm) after excitation with 350-nm UV light. Propidium iodide-positive dead cells (15%) were excluded from the analysis. In the case of the C6 cell line, the SP cells or non-SP cells were sorted and cultured in serum-free culture medium with bFGF and PDGF.
(§3) They were then analyzed by flow cytometry. […] No SP cells were detected in the two human osteosarcoma lines (U-20S and SaOS-2).

B104 neuroblastoma cells = test: SP analysis by Hoechst 33342 flow cytometry, B104 neuroblastoma cells; format: cell-based, rat; details: 50 μM verapamil during Hoechst 33342 labeling
Description: as §2, §3

MCF7 breast cancer cells = test: SP analysis by Hoechst 33342 flow cytometry, MCF7 breast cancer cells; format: cell-based, human; details: 50 μM verapamil during Hoechst 33342 labeling
Description: as §2, §3

HeLa carcinoma cells = test: SP analysis by Hoechst 33342 flow cytometry, HeLa carcinoma cells; format: cell-based, human; details: 50 μM verapamil during Hoechst 33342 labeling
Description: as §2, §3

For `COC(=O)[C@H]1[C@H]2C[C@@H]3c4[nH]c5cc(OC)ccc5c4CCN3C[C@H]2C[C@@H](OC(=O)c2cc(OC)c(OC)c(OC)c2)[C@@H]1OC` [reserpine], the “SP in the presence of reserpine” value (MCF-7 cells) was “no SP is visible”.

“EGF: recombinant cytokine added to serum-free medium at 10 ng/ml” was tested, and the “% of the cells that are SP cells” value (MCF7 cells) was 3.5%.

“bFGF: basic fibroblast growth factor, recombinant cytokine purchased from PeproTech” was tested, and the “SP cells maintained or detected in culture” value (C6 cells) was “few SP cells could be detected” and the “% of the cells that are SP cells” value (MCF7 cells) was 5.1%.

With PDGF the “SP cells maintained or detected in culture” value (C6 cells) was “few SP cells could be detected”.

With `COc1ccc(CCN(C)CCCC(C#N)(c2ccc(OC)c(OC)c2)C(C)C)cc1OC` (stereo not drawn) [verapamil] the “SP (side population) on treatment with verapamil” value (“SP (side population) on treatment” below) (C6 glioma cells) was “decreased greatly”, the “SP (side population) on treatment” value (B104 neuroblastoma cells) was “decreased greatly” and the “SP (side population) on treatment” value (MCF7 breast cancer cells) was “decreased greatly”. The “SP (side population) on treatment” value (HeLa carcinoma cells) was “decreased greatly”.
